Reference: patent US9581587B2, “Sperm staining and sorting methods” (INGURAN, LLC, priority 2011, dated 2017)

Columns and labels:
sperm [1] = assay: Split quality, phenol red as added split enhancing dye (Example 8); format: cell-based, bulls (Jersey, Holstein)
Protocol: Two bulls were collected for the Example 8. The Bull 1 was a Jersey bulls and Bull 2 was a Holstein collected substantially in the manner described in example 1. Sperm from Bull 1 extended to 160 million per with a first buffer, (TALP described in table 1 at a pH 7.4) and divided into two groups for staining. The first group was stained with 44 μM Hoechst 33342 and the second group was stained with 60 μM Hoechst 33342. Similarly, bull 2 was suspended to 160 million per mL the first buffer, (TALP described in table 1 at a pH 7.4) and divided into three groups for staining. The first group was stained with 28 μM Hoechst 33342 and the second group was stained with 44 μM Hoechst 33342 and the third group was stained with 66 μM Hoechst 33342. Each group was incubated for 1 hour at 34° C. and then extended in an equal volume of the second buffer. […] The stained samples were each treated with a variety of quenching dyes and combinations of quenching dyes indicated in below. […] After calibration, screen shots of sorting histograms were taken and histograms split quality was measured as a peak to valley ratio in the same way described in Example 5 with reference to FIG. 4 and the resulting data is found in Table 16.

sperm [2] = assay: Post thaw motility Elk (Example 3); format: cell-based; conditions: post thaw 0 HR; RED TALP with 16 μL Hoechst 33342, Y6 with 14 μL
Protocol: (§1) Each of deer and elk were collected in the Tris-egg yolk catch fluid described as a catch media in Example 1, and shipped for sorting.
(§2) A portion of each of the deer and the elk were stained by the red food dye No. 40 treatment 40% with 16 μL Hoechst 33342 and the yellow food dye No. 6 treatment with 14 μL Hoechst 33342 as described in Example 1.
(§3) Samples were each bulk sorted with the same machine and parameters described in Example 1. Both sorted X and sorted Y sperm were collected into a single catch. The sorted samples were then frozen like those described in Example 1.
(§4) Frozen thawed samples were then tested for post thaw motilities and post thaw DNA fragmentation. Post thaw motilities were slightly higher in Elk sorted with a yellow quencher, while a more significant difference existed in progressive motility. In Table 10, post thaw DNA fragmentation in Elk can be seen at about double after 48 hours when red food dye No. 40 is compared to yellow food dye No. 6 as a dead quencher.

sperm [3] = assay: Post thaw DNA fragmentation Elk (Example 3); format: cell-based
Protocol: as §1, §2, §3, §4

sperm [4] = assay: Post thaw motility of sorted sperm on CASA (Example 4); format: cell-based, canine; conditions: for Progressive / Motile: average, 0 Hr post thaw
Protocol: Sperm was collected from a single canine at room temperature into CaniPro Chill 5, available from Minitube, WI, USA, then centrifuged into a pellet and resuspended in a Tris buffer at a pH of 6.8.
Samples were extended to 40×10^6 sperm/ml in 1 ml volumes with the Tris buffer described in Example 1 but set to a pH of 7.2. Ten samples were then stained 4, 4, 5, 5, 7, 8, 8, 9, 9, and 10 μL of Hoechst 33342 and quenched with one of two quenching dyes at a concentration of 50 μM in a second buffer Tris buffer.
Red food dye No. 40 quencher—1 ml Tris at a pH 6.3 was added with red food dye No. 40 into samples stained with 4, 5, 8, 9, 10 μL Hoechst 33342. The red food dye No. 40 was added at a concentration of about 50 μM.
Yellow food dye No. 6 quencher—1 ml Tris at a pH 6.3 was added with yellow food dye No. 6 into samples stained with 4, 5, 7, 8, 9 μL Hoechst 33342. The yellow food dye No. 6 was added at the same concentration as the red food dye No. 40 quencher, at about 50 μM.
5 million cells were sex sorted with a MoFlo SX XPD into 50 mL Falcon tubes having 3.5 mL of a Tris-egg yolk catch fluid, described in Example 1 for both X and Y populations. Two samples were sorted, the red food dye No. 40 quenched treatment with 9 μL Hoechst 33342 and the yellow food dye […] quenched treatment with 7 μL Hoechst 33342.
Straws were then frozen and stored in liquid nitrogen.
Straws were thawed for 30 sec in a 38° C. water bath and their motilities were examined on CASA.
Table 12 illustrates the average motilities and progressive motilities for the sorted treatments. Canine sperm quenched with yellow food dye No. 6 provided about 4.5% more motile sperm in the X population and 6.5% more motile sperm in the Y population. Similarly, the yellow quenched dye provided 7% better progressive motility in the X population and 8% better progressive motility in the Y population.

O=S1(=O)OC(c2ccc(O)cc2)(c2ccc(O)cc2)c2ccccc21 [Phenol Red, phenolsulfonphthalein]
effect of adding phenol red on split quality (sperm [1]; each Hoechst staining level, with Red 40 or Yellow 6): always improved split quality

COc1cc(S(=O)(=O)O)c(C)cc1N=Nc1c(O)ccc2cc(S(=O)(=O)O)ccc12 [Red 40, 6-hydroxy-5-[(2-methoxy-5-methyl-4-sulfophenyl)azo]-2-naphthalenesulfonic acid, reference compound]
Motile (sperm [2]): 51.0 | Progressive (sperm [2]): 29.0 | post thaw DNA fragmentation compared to yellow food dye No. 6 (sperm [3]): about double | DNA fragmentation Post Sort (sperm [3]; elk, 0 h): 0% | DNA fragmentation Pre-sort (sperm [3]; elk, 0 h): 2.3% | DNA fragmentation Post Sort (sperm [3]; elk, 24 h): 0.3% | DNA fragmentation Pre-sort (sperm [3]; elk, 24 h): 5.6% | DNA fragmentation Post Sort (sperm [3]; elk, 48 h): 0.7% | DNA fragmentation Pre-sort (sperm [3]; elk, 48 h): 6% | Progressive (sperm [4]; Y population): 13

O=S(=O)([O-])c1ccc(N=Nc2c(O)ccc3cc(S(=O)(=O)[O-])ccc23)cc1.[Na+].[Na+] [Yellow 6, Disodium 6-hydroxy-5[(4-sulfophenyl)azo]-2-naphthalenesulfononate]
PV (sperm [1]; Bull 1, Hoechst 33342 44 μM, R40 0, Y6 50 μM, PR 0): 1.20 | Motile (sperm [2]): 55.5 | Progressive (sperm [2]): 38.0 | DNA fragmentation Post Sort (sperm [3]; post thaw 0 HR): 0% | DNA fragmentation Pre-sort (sperm [3]; post thaw 0 HR): 2.3% | DNA fragmentation Post Sort (sperm [3]; post thaw 24 HR): 0% | DNA fragmentation Pre-sort (sperm [3]; post thaw 24 HR): 3.3% | DNA fragmentation Post Sort (sperm [3]; post thaw 48 HR): 0.3% | DNA fragmentation Pre-sort (sperm [3]; post thaw 48 HR): 3.7% | better progressive motility than red quenched (sperm [4]; X population): 7% | more motile sperm than red quenched (sperm [4]; X population): about 4.5% | Motile (sperm [4]; X population): 24 | Progressive (sperm [4]; X population): 18.5 | better progressive motility than red quenched (sperm [4]; Y population): 8% | more motile sperm than red quenched (sperm [4]; Y population): ~6.5% | Motile (sperm [4]; Y population): 25 | Progressive (sperm [4]; Y population): 21
